Results reported in publication PMC12441834, “Highly Potent and Subtype-Selective Sperm-Specific Potassium Channel SLO3 Inhibitors Display High Tissue Exposure in the Murine Female Reproductive Tract” (ACS Pharmacology & Translational Science, 2025).

Assays:
human SLO3 = target: T1, human SLO3 (Homo sapiens, UniProt A8MYU2); assay: SLO3 patch-clamp electrophysiology, human SLO3-γ2 expressed in HEK293 cells; assay type: cell-based; details: for inhibition at 10 µM: HEK293, read-out: HEK hSLO3 % of inhib. at 10 μM; for IC50: transfected HEK293 cells (human SLO3-γ2), whole-cell patch clamp, currents at +100 mV, read-out: hSLO3 IC50
T1 construct: expressed in transfected cells
T1 sequence (A8MYU2 1-1149): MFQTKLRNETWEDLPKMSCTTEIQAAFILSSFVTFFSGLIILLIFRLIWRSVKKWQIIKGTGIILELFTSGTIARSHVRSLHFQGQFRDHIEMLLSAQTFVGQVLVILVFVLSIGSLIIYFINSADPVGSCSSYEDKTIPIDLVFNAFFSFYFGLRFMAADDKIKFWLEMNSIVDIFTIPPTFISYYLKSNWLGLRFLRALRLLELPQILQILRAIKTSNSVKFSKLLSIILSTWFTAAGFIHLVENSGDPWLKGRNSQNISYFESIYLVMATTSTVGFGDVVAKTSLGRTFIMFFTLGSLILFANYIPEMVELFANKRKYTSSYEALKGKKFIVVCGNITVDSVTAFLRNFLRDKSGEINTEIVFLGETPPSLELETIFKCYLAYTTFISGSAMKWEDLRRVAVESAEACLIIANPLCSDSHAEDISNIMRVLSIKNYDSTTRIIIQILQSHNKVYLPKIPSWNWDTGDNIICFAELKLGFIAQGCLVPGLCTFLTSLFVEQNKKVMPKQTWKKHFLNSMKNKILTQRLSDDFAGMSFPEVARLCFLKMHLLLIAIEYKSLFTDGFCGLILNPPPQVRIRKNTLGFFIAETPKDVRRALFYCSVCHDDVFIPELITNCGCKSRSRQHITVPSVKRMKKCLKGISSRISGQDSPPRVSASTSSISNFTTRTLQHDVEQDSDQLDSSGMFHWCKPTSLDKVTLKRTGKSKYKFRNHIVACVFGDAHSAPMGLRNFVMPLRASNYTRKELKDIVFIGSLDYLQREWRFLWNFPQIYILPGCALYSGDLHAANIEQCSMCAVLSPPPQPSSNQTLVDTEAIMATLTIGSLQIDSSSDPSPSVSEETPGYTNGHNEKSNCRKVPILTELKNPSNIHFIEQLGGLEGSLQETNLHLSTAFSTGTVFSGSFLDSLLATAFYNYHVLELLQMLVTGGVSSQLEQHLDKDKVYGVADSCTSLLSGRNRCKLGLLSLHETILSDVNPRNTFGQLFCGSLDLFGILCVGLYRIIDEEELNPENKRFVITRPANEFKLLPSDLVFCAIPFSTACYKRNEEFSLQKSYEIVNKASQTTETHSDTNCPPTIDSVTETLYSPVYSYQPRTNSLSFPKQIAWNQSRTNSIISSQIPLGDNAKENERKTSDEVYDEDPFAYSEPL
T1 sequence (Q8N7C0 24-313 partner): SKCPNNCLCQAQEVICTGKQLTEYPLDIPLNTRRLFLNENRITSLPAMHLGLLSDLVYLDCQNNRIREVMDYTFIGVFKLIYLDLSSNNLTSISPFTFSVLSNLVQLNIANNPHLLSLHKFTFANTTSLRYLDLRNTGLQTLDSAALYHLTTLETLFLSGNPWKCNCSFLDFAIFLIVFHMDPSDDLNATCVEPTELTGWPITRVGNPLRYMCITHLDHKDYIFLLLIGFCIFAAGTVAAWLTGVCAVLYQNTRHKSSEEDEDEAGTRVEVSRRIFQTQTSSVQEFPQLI
Description: HEK293 cells were transfected with the bicistronic vector pBUD-CE4.1 containing the genes of interest and a gene conferring antibiotic resistance. Cells were exposed to gradients of selection antibiotics, and optimal growth conditions for the stable lines were as follows: SLO3 and γ2 (SLO3-γ2) supplemented with 700 μg/mL Zeocin (Invitrogen); human SLO1 and β1 (SLO1-β1) with 1 mg/mL G418 (Sigma) and 3 μg/mL puromycin (Corning, Thermo Fisher); and human SLO1 and β4 (SLO1-β4) with 250 μg/mL Zeocin and 3 μg/mL puromycin. All cell lines were grown in Dulbecco’s Modified Eagle Medium (Gibco, Thermo Fisher) supplemented with 10% fetal bovine serum, 1% penicillin–streptomycin (Millipore Sigma), and selection antibiotics. To generate cells expressing SLO1 and γ2, stable SLO1-expressing HEK293 cells were transiently transfected with expression vectors for γ2 and green fluorescent protein (GFP) in the presence of lipofectamine (Invitrogen) for 5 h.
The cells were then washed and incubated in supplemented Dulbecco’s Modified Eagle Medium for 48 h before use. Patch-clamp electrophysiology was performed only on cells expressing GFP.
Currents in HEK293 cells were measured in the whole-cell patch-clamp configuration with an Axopatch 200B amplifier, digitized with a Digidata 1440A, and interfaced with Clampex 10.6.0.13 (Molecular Devices). […] An isolated cell was located on an Axiovert 200 microscope (Zeiss), and a gigaohm seal was formed with a borosilicate pipette with resistance between 3 and 6 MΩ and filled with internal solution (140 mM KMeSO3, 10 mM HEPES, 10 mM MES, 1 mM EGTA, pH 7). The seal was then broken by applying a negative pressure. Cells were kept at a holding potential of −60 mV for 50 ms, tested with a stepped voltage protocol from −80 to +150 mV in 10 mV increments for 100 ms, and then dropped to −40 mV for 50 ms with 2.5 s between sweeps. This protocol was used to record currents present with increasing concentration of our compound of interest or 3 μL/mL vehicle (DMSO) in the bath solution. Individual cells were tested with between 1 and 5 concentrations of the compound of interest or until the patch was lost. Currents were allowed to stabilize before the initial recording and after the perfusion solution was changed before recording.
Data were analyzed with a pClamp 10.6 (Molecular Devices). VU6047606 and VU6032735 inhibition dose–response relationships were fit by the Hill equation in OriginPro 7.5 (OriginLab Corporation): R=1/1+(C/IC50)^n+Ioff , in which R is fractional unblock, C is compound concentration, IC50 is the half inhibition concentration, n is the Hill coefficient, and I off is an offset item for leak current. Error bars in the figures represent the SDs. Each data point is averaged from at least 5 measurements. Curve-fitting results are reported as the fitted values with standard error, which was estimated by OriginPro according to the Error Propagation formula.

Kinetic solubility = assay type: physicochemical; details: aqueous buffer, kinetic from dmso stock; pH 2.2; pH 6.8; read-out: Kinetic Solubility (pH 2.2; pH6.8)

Row | IC50 (human SLO3) [nM] | solubility kinetic (Kinetic solubility) [µM] | Compound | inhibition at 10 µM (human SLO3) [%]
1 | 135 | – | Cc1cc(Cl)cc2sc(OC3CCN(C(=O)CCCS(=O)(=O)c4cccc(Br)c4)CC3F)nc12 (stereo not shown) [VU6045330] | –
2 | 457 | < 0.85 | Cc1cc(Cl)cc2sc(O[C@@H]3CCN(C(=O)CCCS(=O)(=O)c4cccc(Br)c4)C[C@H]3F)nc12 [VU6047607] | –
3 | 583 | < 0.85 | Cc1cc(Cl)cc2sc(O[C@@H]3CCN(C(=O)CCCS(=O)(=O)c4cccc(Br)c4)C[C@@H]3F)nc12 [VU6047608] | –
4 | 112 | < 0.85 | Cc1cc(Cl)cc2sc(O[C@H]3CCN(C(=O)CCCS(=O)(=O)c4cccc(Br)c4)C[C@@H]3F)nc12 [VU6047609] | –

Row | Compound | IC50 (human SLO3) [nM] | solubility kinetic (Kinetic solubility) [µM] | inhibition at 10 µM (human SLO3) [%]
5 | O=C(c1ccc(OCc2ccc(OC(F)(F)F)cc2)cc1)N1CCN(c2ccc(C(F)(F)F)cn2)CC1 [VU6032735] | 165 | < 0.95 | 100
6 | Cc1cc(Cl)cc2sc(O[C@H]3CCN(C(=O)CCCS(=O)(=O)c4cccc(Br)c4)C[C@H]3F)nc12 [VU6047606] | 43 | < 0.85 | 100
